Results: paper PMC5048153 (Scientific Reports, 2016)

Legend:
[1] = test system: corticosterone-injured PC12 cells; assay: Protective effects on corticosterone-injured PC12 cells (MTT); format: cell-based, rat; set-up: key to PR (protection rate), Table S1: compounds did not shown protection effects on corticosterone-injured PC12 cells; settings: 24 h after treatment; for PR (protection rate), Table S1: 1.25µM; for PR (protection rate): 1.25 μM, 200 μM corticosterone
Method: PC12 cells were purchased from American Type Culture Collection and were maintained in DMEM medium supplemented with penicillin (100 unit/ml), streptomycin (100 μg/ml), 5% fetal bovine serum (FBS), and 10% horse serum at 37 °C in humidified atmosphere with 5% CO2. The detailed procedures were performed referring to the reported literatures. Briefly, PC12 cells of logarithmic growth phase were collected, re-suspended and then seeded at a density of 1 × 10^5 cells per well in 96-well plates and cultured in the DMEM medium with 5% horse serum, 10% FBSfor 24 h.
After incubation with compounds, 20 μl of 5 mg/ml MTT solution was added to each well and cultured at 37 °C for 2 h–4 h. Then, the culture medium was removed, and 150 μl dimethyl sulfoxide(DMSO) was added to each well for 15 min at room temperature. The absorbance of each well was measured at 570 nm using a microplate reader. The protective rates (PR) were calculated according to equation (1).

HEK293 cells = assay: Cytotoxicity on HEK293 cells (MTT); format: cell-based, human; settings: Homo sapiens, HEK293, 100μM, after treatment; read-out: IR (inhibitory rate) HEK293
Method: (§1) Human normal hepatic L02 cells, human embryonic kidney cell line 293 cells (HEK293) and Rattus myoblast cell line H9C2 cells were respectively seeded in 96-well plates at a density of 4 × 10^3 cells per well and cultured in the 1640 or DMEM medium, with the supplement of 10% fetal bovine serum, penicillin (100 unit/ml), streptomycin (100 μg/ml) in a humidified incubator with 5% CO2 for 24 h. […] The cytotoxicities of the compounds were evaluated by MTT method.

L02 cells = assay: Cytotoxicity on L02 cells (MTT); format: cell-based, human; settings: Homo sapiens, L02, 100μM, after treatment; read-out: IR (inhibitory rate) L02
Method: as §1

Structure (SMILES)	PR (protection rate), Table S1 [1]	PR (protection rate) [1]	inhibition at 100 µM (HEK293 cells) [%]	inhibition at 100 µM (L02 cells) [%]
COc1ccc2c(c1)C(CCNC(=O)c1cc(Cl)ccc1Br)=NCC2.O=C(O)C(=O)O [6a-27, 2-Bromo-5-chloro-N-(2-(7-methoxy-3,4-dihydroisoquinolin-1-yl)ethyl)benzamide oxalate]	10.1%	above 10%	51.8	45.9
COc1ccc2c(c1)C(CCNC(=O)c1cc(C(F)(F)F)ccc1Br)=NCC2.O=C(O)C(=O)O [6a-28, 2-Bromo-N-(2-(7-methoxy-3,4-dihydroisoquinolin-1-yl)ethyl)-5-(trifluoromethyl)benzamide oxalate]	2.4%		58.5	43.7
COc1ccc2c(c1)C(CCNC(=O)c1cncc(Br)c1)=NCC2.O=C(O)C(=O)O [6a-29, 5-Bromo-N-(2-(7-methoxy-3,4-dihydroisoquinolin-1-yl)ethyl)nicotinamide oxalate]	-		29.5	14.4
COc1ccc2c(c1)C(CCNC(=O)c1cc(Br)cnc1Cl)=NCC2.O=C(O)C(=O)O [6a-30, 5-Bromo-2-chloro-N-(2-(7-methoxy-3,4-dihydroisoquinolin-1-yl)ethyl)nicotinamide oxalate]	-		49.1	47.5
COc1ccc2c(c1)C(CCNC(=O)c1ccc(Br)nc1)=NCC2.O=C(O)C(=O)O [6a-31, 6-Bromo-N-(2-(7-methoxy-3,4-dihydroisoquinolin-1-yl)ethyl)nicotinamide oxalate]	0.2%		56.1	46.1
COc1ccc2c(c1)C(CCNC(=O)NC1CC1)=NCC2.O=C(O)C(=O)O [6b-1, 1-Cyclopropyl-3-(2-(7-methoxy-3,4-dihydroisoquinolin-1-yl)ethyl)urea oxalate]	-		19.5	27.2
COc1ccc2c(c1)C(CCNC(=O)Nc1cccc(Cl)c1)=NCC2.O=C(O)C(=O)O [6b-2, 1-(3-Chlorophenyl)-3-(2-(7-methoxy-3,4-dihydroisoquinolin-1-yl)ethyl)urea oxalate]	-		37.9	38.9
COc1ccc2c(c1)C(CCNC(=O)Nc1ccc(C(F)(F)F)cc1)=NCC2.O=C(O)C(=O)O [6b-3, 1-(2-(7-Methoxy-3,4-dihydroisoquinolin-1-yl)ethyl)-3-(4-(trifluoromethyl)phenyl)urea oxalate]	10.7%	above 10%	23.2	35.8
COc1ccc2c(c1)C(CCNC(=O)Nc1ccccc1C(F)(F)F)=NCC2.O=C(O)C(=O)O [6b-4, 1-(2-(7-Methoxy-3,4-dihydroisoquinolin-1-yl)ethyl)-3-(2-(trifluoromethyl)phenyl)urea oxalate]	11.9%	above 10%	29.2	57.7
COc1ccc2c(c1)C(CCNC(=O)Nc1cc(Cl)c(Cl)c(Cl)c1)=NCC2.O=C(O)C(=O)O [6b-5, 1-(2-(7-Methoxy-3,4-dihydroisoquinolin-1-yl)ethyl)-3-(3,4,5-trichlorophenyl)urea oxalate]	-		40.1	40.7
COc1ccc2c(c1)C(CCNC(=O)Nc1c(C)cc(C#N)cc1C)=NCC2.O=C(O)C(=O)O [6b-6, 1-(4-Cyano-2,6-dimethylphenyl)-3-(2-(7-methoxy-3,4-dihydroisoquinolin-1-yl)ethyl)urea oxalate]	-		< 20	< 20
COc1ccc2c(c1)C(CCNC(=O)Nc1ccc(C#N)c(F)c1)=NCC2.O=C(O)C(=O)O [6b-7, 1-(4-Cyano-3-fluorophenyl)-3-(2-(7-methoxy-3,4-dihydroisoquinolin-1-yl)ethyl)urea oxalate]	-		27.2	24.7
COc1ccc2c(c1)C(CCNC(=O)Nc1ccc(Br)cn1)=NCC2.O=C(O)C(=O)O [6b-12, 1-(5-Bromopyridin-2-yl)-3-(2-(7-methoxy-3,4-dihydroisoquinolin-1-yl)ethyl)urea oxalate]	16.3%	above 10%	49.4	48.1
COc1ccc2c(c1)C(CCNC(=O)Nc1cccc3ccccc13)=NCC2.O=C(O)C(=O)O [6b-13, 1-(2-(7-Methoxy-3,4-dihydroisoquinolin-1-yl)ethyl)-3-(naphthalen-1-yl)urea oxalate]	-		< 20	< 20
COc1ccc2c(c1)C(CCNC(=O)Nc1ccc(F)c(Cl)c1)=NCC2.O=C(O)C(=O)O [6b-14, 1-(3-Chloro-4-fluorophenyl)-3-(2-(7-methoxy-3,4-dihydroisoquinolin-1-yl)ethyl)urea oxalate]	-		22.8	47.7
COc1ccc2c(c1)C(CCNC(=O)Nc1cccc([N+](=O)[O-])c1)=NCC2.O=C(O)C(=O)O [6b-15, 1-(2-(7-Methoxy-3,4-dihydroisoquinolin-1-yl)ethyl)-3-(3-nitrophenyl)urea oxalate]	-		47.5	48.9
COc1ccc2c(c1)C(CCNC(=O)Nc1nccs1)=NCC2.O=C(O)C(=O)O [6b-17, 1-(2-(7-Methoxy-3,4-dihydroisoquinolin-1-yl)ethyl)-3-(thiazol-2-yl)urea oxalate]	13.9%	above 10%	21.9	20.1
COc1ccc2c(c1)C(CCNC(=O)Nc1ccc(Cl)c(Cl)c1)=NCC2.O=C(O)C(=O)O [6b-18, 1-(3,4-Dichlorophenyl)-3-(2-(7-methoxy-3,4-dihydroisoquinolin-1-yl)ethyl)urea oxalate]	12.8%	above 10%	56.1	57.5
COc1ccc2c(c1)C(CCNC(=O)Nc1ccccc1[N+](=O)[O-])=NCC2 [6b-19, 1-(2-(7-Methoxy-3,4-dihydroisoquinolin-1-yl)ethyl)-3-(2-nitrophenyl)ureaoxalate]	-		33.5	31.5
COc1ccc2c(c1)C(CCNC(=O)Nc1ccc(CC#N)cc1)=NCC2.O=C(O)C(=O)O [6b-20, 1-(4-(Cyanomethyl)phenyl)-3-(2-(7-methoxy-3,4-dihydroisoquinolin-1-yl)ethyl)urea oxalate]	-		47.8	52
COc1ccc2c(c1)C(CCNC(=O)Nc1ccc(Br)cc1)=NCC2 [6b-21, 1-(4-Bromophenyl)-3-(2-(7-methoxy-3,4-dihydroisoquinolin-1-yl)ethyl)ureaoxalate]	-		41.2	38.3
COc1ccc2c(c1)C(CCNC(=O)Nc1ncccc1Br)=NCC2.O=C(O)C(=O)O [6b-22, 1-(3-Bromopyridin-2-yl)-3-(2-(7-methoxy-3,4-dihydroisoquinolin-1-yl)ethyl)urea oxalate]	-		46.4	48.5
